Results: publication PMC6891756, “Synthesis and Biological Evaluation of Novel Aminochalcones as Potential Anticancer and Antimicrobial Agents” (Molecules, 2019)
Values after ≈ are worked out from the molar mass of the structure shown.

Key:
HT-29 = test: SRB antiproliferative assay, HT-29; type: cell-based, human; details: for IC50: Homo sapiens, HT-29, SRB, 48 h, 1–100 µg·mL^−1, ND = not detected in the tested concentration range
Method: (§1) Anticancer activity was evaluated using the sulforhodamine B assay (SRB) on four different human colon cancer cell lines: HT-29, LS180, LoVo and LoVo/DX and green monkey kidney fibroblasts COS7 (ATCC, Manassas, VA, USA). Cell lines HT-29 and COS7 were cultured in α-MEM medium (IIET PAS, Wrocław, Poland), LS180 in OptiMEM medium (IIET PAS), LoVo and LoVo/DX in mixture of α-MEM and OptiMEM medium (1:1 (v:v)). Each culture medium was supplemented with 10% fetal bovine serum, 2 mM glutamine, 100 μg·mL^−1 penicillin, 100 μg·mL^−1 streptomycin and 0.25 μg·mL^−1 amphotericin (all supplements purchased from Gibco (Paisley, UK). Cells were incubated at 37 °C, 5% CO2 in HeraCELL 150i incubator (Thermo Fisher Scientific, Waltham, MA, USA).
(§2) For the SRB assay, cells were seeded onto 96-well plates (Sarstedt, Nümbrecht, Germany) at a density of 5·10^3/well and cultured overnight as described above. Then, the growth medium was gently removed and replaced with fresh medium, supplemented with aminochalcone derivatives in the concentration ranging from 1 µg·mL^−1 to 100 µg·mL^−1. All stock solutions were prepared in DMSO at a concentration of 10 mg·mL^−1. Cells were incubated for 48 h and then the SRB assay was performed as described previously. Each experiment was performed in quadruplicate. The final results were reported as the IC50 values calculated for three independent experiments. Cisplatin (Acros Organics, Waltham, MA, USA) and doxorubicin (Fisher BioReagents, Waltham, MA, USA) were used as positive controls of the test.

LS180 = test: SRB antiproliferative assay, LS180; type: cell-based, human; details: Homo sapiens, LS180, 48 h, 1–100 µg·mL^−1, ND = not detected in the tested concentration range
Method: as §1, §2

LoVo = test: SRB antiproliferative assay, LoVo; type: cell-based, human; details: Homo sapiens, LoVo, 48 h, 1–100 µg·mL^−1, ND = not detected in the tested concentration range
Method: as §1, §2

LoVo/DX = test: SRB antiproliferative assay, LoVo/DX; type: cell-based, human; details: Homo sapiens, LoVo/DX, 48 h, 1–100 µg·mL^−1, ND = not detected in the tested concentration range
Method: as §1, §2

[1] = SRB assay, normal fibroblasts COS7; type: cell-based, green monkey; details: green monkey, COS7 kidney fibroblasts (normal cell line), ND = not detected in the tested concentration range
Method: as §1, §2

[2] = system: Escherichia coli ATCC10536; test: Microbial growth curve screening, E. coli; type: cell-based; details: 0.1% (w/v); for ∆OD E. coli: OD at 560 nm, control 1.61
Method: (§3) The antimicrobial screening tests were performed on two strains of bacteria: E. coli ATCC10536 and S. aureus DSM799, strain of yeast C. albicans DSM1386 and three strains of fungi: F. linii KB-F1, A. alternata CBS1526 and A. niger DSM1957. All microorganisms were obtained from the collection of the Faculty of Biotechnology and Food Microbiology, Wrocław University of Environmental and Life Sciences. The bacteria were cultured in nutrient broth (Biocorp, Warsaw, Poland), yeast and fungi in YM medium (3 g yeast extract, 3 g malt extract, 5 g bacteriological peptone and 10 g of glucose dissolved in 1 L of distilled water). The tests were carried out in 100-well microtiter plates. To each well 280 μL of culture medium, 10 μL of microorganism suspension and 10 μL of aminochalcone (1–18) dissolved in dimethyl sulfoxide (3% (w/v)) were added. The final concentration of the tested compound (1–18) was 0.1% (w/v). Each experiment were performed in 3 replications. The optical density of the cell suspension was measured on Bioscreen C (Automated Growth Curve Analysis System Lab System, Vantaa, Finland) at 560 nm automatically, at regular intervals of 30 min for 2–3 days. Cell cultures were maintained at 28 °C on a continuous shaker. To prepare the growth curves for each strain, the mean values of the absorbance in a function of time were used. The resulting antimicrobial activity was expressed as the increase of optical density (ΔOD) and was compared to that of the control cultures in the medium supplemented with dimethyl sulfoxide and also with reference substances: oxytetracycline (against bacteria), cycloheximide (against yeast) and nystatin (against fungi) (Sigma Aldrich).

[3] = system: Staphylococcus aureus DSM799; test: Microbial growth curve screening, S. aureus; type: cell-based; details: 0.1% (w/v), OD at 560 nm, control 1.67
Method: as §3

Candida albicans DSM1386 [4] = test: Microbial growth curve screening, C. albicans; type: cell-based; details: 0.1% (w/v)
Method: as §3

[5] = system: Alternaria alternata CBS1526; test: Microbial growth curve screening, A. alternata; type: cell-based; details: 0.1% (w/v), OD at 560 nm, control 1.86
Method: as §3

Fusarium linii KB-F1 = test: Microbial growth curve screening, F. linii; type: cell-based; details: 0.1% (w/v); for ∆OD F. linii: OD at 560 nm, control 1.95; for Lag-phase F. linii: control 13.5 h
Method: as §3

[6] = system: Staphylococcus aureus DSM799; test: MIC evaluation (broth method), S. aureus; type: cell-based; details: 48–72 h, read-out: Minimal inhibitory concentration S. aureus
Method: (§4) Sterile 96-well microtiter plates (Sarstedt) with nutrient broth (for bacteria) (Biocorp) or YM medium (for yeast and filamentous fungi) were inoculated with a standardized cell suspension of bacteria and yeast or fungal spores of 10^5 cell·mL^−1, and supplemented with aminochalcones dissolved in DMSO. […] All analysis were conducted in triplicates. The plates were incubated at 30 °C (bacteria and yeast) or 25 °C (filamentous fungi) for 48–72 h. The results were measured with the Spark® Multimode Microplate Reader (Tecan, Männedorf, Switzerland) at a 560 nm wavelength. The minimal inhibitory concentration was defined as the lowest concentration of a tested compound that completely restricted the growth of the microorganism. In order to verify the obtained results, microbial cultures subjected to each concentration of aminochalcone were inoculated onto nutrient agar or YM plates and incubated as described above. The lack of growth on agar plate was a confirmation of the MIC of the tested compound. The resulting MIC values were compared with the reference substances: oxytetracycline (against bacteria), cycloheximide (against yeast) and nystatin (against fungi) (Sigma Aldrich).

[7] = system: Alternaria alternata CBS1526; test: MIC evaluation (broth method), A. alternata; type: cell-based; details: Alternaria alternata, CBS1526, 48–72 h, read-out: Minimal inhibitory concentration A. alternata
Method: as §4

[8] = system: Aspergillus niger DSM1957; test: MIC evaluation (broth method), A. niger; type: cell-based; details: Aspergillus niger, DSM1957, 48–72 h, read-out: Minimal inhibitory concentration A. niger
Method: as §4

HT-29 cell line = system: HT-29 cell line; parameters: method as in PMID 24675137; details: cited from earlier work
[9] = system: HT-29, LS180, LoVo and LoVo/DX; test: SRB assay, all tested human colon cancer cell lines (pooled statement); type: cell-based; details: range over HT-29, LS180, LoVo, read-out: IC50 values against all tested human colon cancer cell lines
Method: as §1
as §2, with “Cisplatin (Acros Organics, Waltham, MA, USA) and doxorubicin (Fisher BioReagents, Waltham, MA, USA) were used as positive controls of the test.” left out

[10] = system: Aspergillus niger DSM1957; test: Microbial growth curve screening, A. niger; type: cell-based; details: 0.1% (w/v)
Method: as §3

[11] = system: Escherichia coli ATCC10536; test: MIC evaluation (broth method), E. coli; type: cell-based; details: 48–72 h, read-out: Minimal inhibitory concentration E. coli
Method: as §4

Candida albicans DSM1386 [12] = test: MIC evaluation (broth method), C. albicans; type: cell-based; details: DSM1386, broth method, 48–72 h, read-out: Minimal inhibitory concentration C. albicans
Method: as §4

SMILES	IC50 (HT-29) [µg/mL]	IC50 (LS180) [µg/mL]	IC50 (LoVo) [µg/mL]	IC50 (LoVo/DX) [µg/mL]	IC50 at 48 h [1] [µg/mL]	∆OD E. coli [2]	∆OD S. aureus [3]	∆OD A. alternata [5]	∆OD F. linii (Fusarium linii KB-F1)	Lag-phase F. linii (Fusarium linii KB-F1) [h]	MIC [6] [µg/mL]	MIC [7] [µg/mL]	also measured
Nc1ccccc1C(=O)/C=C/c1ccccc1 [Compound 1, 2′-Aminochalcone]	1.43 ± 0.16 (≈ 6.4 µM)	2.06 ± 0.18 (≈ 9.23 µM)	1.56 ± 0.04 (≈ 6.99 µM)	1.43 ± 0.02 (≈ 6.4 µM)	2.64 ± 0.47 (≈ 11.8 µM)	0.12	0.0	0.0	0.73	18.5	0.25 (≈ 1.12 µM)	1 (≈ 4.48 µM)	times higher activity than cisplatin, HT-29 (HT-29; ratio of IC50 values vs cisplatin (19)): ~12 times; Lag-phase E. coli ([2]; control 4.0 h): 10.0 h; ∆OD C. albicans (Candida albicans DSM1386 [4]; OD at 560 nm, control 1.58): 0.14; Lag-phase C. albicans (Candida albicans DSM1386 [4]; control 3.0 h): 24.5 h; MIC [8]: 0.125 µg/mL (≈ 0.56 µM); IC50 HT-29 (literature) (HT-29 cell line): 0.98 µg/mL (≈ 4.39 µM); IC50 (HT-29 cell line; read-out: IC50 HT-29 (literature)): 4.39 µM
Nc1cccc(C(=O)/C=C/c2ccccc2)c1 [Compound 2, 3′-Aminochalcone]	1.6 ± 0.01 (≈ 7.17 µM)	2.13 ± 0.18 (≈ 9.54 µM)	1.88 ± 0.12 (≈ 8.42 µM)	1.97 ± 0.3 (≈ 8.82 µM)	3.25 ± 0.66 (≈ 14.6 µM)	0.0	0.0	0.0	0.23	30.0	0.25 (≈ 1.12 µM)	0.5 (≈ 2.24 µM)	IC50 [9]: 1.6 to 2.13 µg/mL (≈ 7.17 to 9.54 µM); ∆OD A. niger ([10]; OD at 560 nm, control 2.14): 0.34; Lag-phase A. niger ([10]; control 11.0 h): 1.5 h; MIC [11]: 0.25 µg/mL (≈ 1.12 µM); MIC (Candida albicans DSM1386 [12]): 0.5 µg/mL (≈ 2.24 µM); melting point: 121 to 124 °C
